In PubChem BioAssay AID330 (DTP/NCI, 2004):
Several values for one entry are separate records, joined by “and”; a condition that tells them apart may be missing. Identical values can stand only once. Inconclusive results and toxic doses are left out.

Tested on: P388 leukemia ip, CD2F1 mice, survival T/C
Assay: NCI In Vivo Anticancer Drug Screen. Data for tumor model P388 Leukemia (intraperitoneal) in CD2F1 (CDF1) mice
Conditions: endpoint: median survival time, higher = longer survival
Outline: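 Mice carrying the transplanted tumor received test compound or vehicle. Survival was recorded in each group, and the value is the treated-group measurement divided by that of the vehicle-treated control group.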

[1] = dose: 25.0 mg/kg/injection, schedule: Q01DX009 (ip), vehicle: saline with Tween-80
[2] = dose: 50.0 mg/kg/injection, schedule: Q01DX009 (ip), vehicle: Klucel (hydroxypropylcellulose) (HPC)
[3] = dose: 100.0 mg/kg/injection, schedule: Q01DX009 (ip), vehicle: Klucel (hydroxypropylcellulose) (HPC)
[4] = dose: 200.0 mg/kg/injection, schedule: Q01DX009 (ip), vehicle: Klucel (hydroxypropylcellulose) (HPC)
[5] = dose: 50.0 mg/kg/injection, schedule: Q01DX005 (ip), vehicle: Klucel (hydroxypropylcellulose) (HPC)
[6] = dose: 100.0 mg/kg/injection, schedule: Q01DX005 (ip), vehicle: Klucel (hydroxypropylcellulose) (HPC)
[7] = dose: 200.0 mg/kg/injection, schedule: Q01DX005 (ip), vehicle: Klucel (hydroxypropylcellulose) (HPC)
[8] = dose: 60.0 mg/kg/injection, schedule: Q01DX005 (ip), vehicle: saline with Tween-80

O=C1CS(=O)(=O)C(c2cccnc2)N1CCN1C(=O)CS(=O)(=O)C1c1cccnc1 (stereo not drawn)
T/C (dose: 100.0 mg/kg/injection, schedule: Q04DX002 (ip), vehicle: saline with Tween-80): 97 % of control
T/C (dose: 200.0 mg/kg/injection, schedule: Q04DX002 (ip), vehicle: saline with Tween-80): 93 % of control
T/C (dose: 400.0 mg/kg/injection, schedule: Q04DX002 (ip), vehicle: saline with Tween-80): 92 % of control

CCC(C)NCC/C(=C\[Si](C)(C)C)c1ccccc1 (stereo not drawn)
T/C (dose: 100.0 mg/kg/injection, schedule: Q01DX001 (ip), vehicle: saline with Tween-80): 100 % of control
T/C (dose: 200.0 mg/kg/injection, schedule: Q01DX001 (ip), vehicle: saline with Tween-80): 106 % of control

CC(=O)N1C(=O)C2C3C=CC(C3)C2C(=O)N1C(C)=O (stereo not drawn)
T/C (dose: 6.25 mg/kg/injection, schedule: Q01DX009 (ip), vehicle: saline with Tween-80): 96 % of control
T/C (dose: 12.5 mg/kg/injection, schedule: Q01DX009 (ip), vehicle: saline with Tween-80): 97 % of control
T/C [1]: 102 % of control
T/C (dose: 50.0 mg/kg/injection, schedule: Q01DX009 (ip), vehicle: saline with Tween-80): 106 % of control and 86 % of control

ClCCN(CCN(CCCl)c1ccc2ccccc2c1)c1ccc2ccccc2c1
T/C [2]: 109 % of control
T/C [3]: 112 % of control
T/C [4]: 107 % of control

CCOC1OCN(C(C)C)CC1(C)C (stereo not drawn)
T/C [1]: 98 % of control

CN(Cc1nc2ccccc2[nH]1)N=O
T/C (dose: 100.0 mg/kg/injection, schedule: Q01DX001 (ip), vehicle: Klucel (hydroxypropylcellulose) (HPC)): 97 % of control
T/C (dose: 200.0 mg/kg/injection, schedule: Q01DX001 (ip), vehicle: Klucel (hydroxypropylcellulose) (HPC)): 107 % of control
T/C (dose: 400.0 mg/kg/injection, schedule: Q01DX001 (ip), vehicle: Klucel (hydroxypropylcellulose) (HPC)): 102 % of control

COc1cccc2c1C(=O)c1c(O)c3c(c(O)c1C2=O)C[C@@](O)(C(C)=O)CC3OC1CC(NC(=O)C(C)N)C(O)C(C)O1 (stereo partly drawn)
T/C (dose: 6.25 mg/kg/injection, schedule: Q04DX003 (ip), vehicle: saline): 108 % of control
T/C (dose: 12.5 mg/kg/injection, schedule: Q04DX003 (ip), vehicle: saline): 115 % of control
T/C (dose: 50.0 mg/kg/injection, schedule: Q04DX003 (ip), vehicle: saline): 150 % of control

O=C(O)/C(Cl)=C(Cl)\C=N\c1ncn[nH]1
T/C (dose: 6.25 mg/kg/injection, schedule: Q01DX005 (ip), vehicle: Klucel (hydroxypropylcellulose) (HPC)): 104 % of control
T/C (dose: 12.5 mg/kg/injection, schedule: Q01DX005 (ip), vehicle: Klucel (hydroxypropylcellulose) (HPC)): 100 % of control
T/C (dose: 25.0 mg/kg/injection, schedule: Q01DX005 (ip), vehicle: Klucel (hydroxypropylcellulose) (HPC)): 112 % of control

CCOC(=O)\C(C#N)=C/C=C/C(C)=C/Nc1ccc([N+](=O)[O-])cc1[N+](=O)[O-]
T/C [5]: 91 % of control
T/C [6]: 91 % of control
T/C [7]: 102 % of control

CC(=O)Cc1ccc(C)cc1
T/C (dose: 100.0 mg/kg/injection, schedule: Q04DX003 (ip), vehicle: saline with Tween-80): 104 % of control
T/C (dose: 200.0 mg/kg/injection, schedule: Q04DX003 (ip), vehicle: saline with Tween-80): 104 % of control
T/C (dose: 400.0 mg/kg/injection, schedule: Q04DX003 (ip), vehicle: saline with Tween-80): 104 % of control

OC1CC2CCCCC2CC1Cl (stereo not drawn)
T/C [2]: 90 % of control
T/C [3]: 100 % of control
T/C [4]: 100 % of control

CCN(CC)CCCC(C)Nc1cc(C)nc2ccc(N(C)C)cc12 (stereo not drawn)
T/C (dose: 15.0 mg/kg/injection, schedule: Q01DX005 (ip), vehicle: saline with Tween-80): 108 % of control
T/C (dose: 30.0 mg/kg/injection, schedule: Q01DX005 (ip), vehicle: saline with Tween-80): 105 % of control
T/C [8]: 100 % of control and 103 % of control

c1ccc(N=C(Nc2ccccc2)C(=Nc2ccccc2)Nc2ccccc2)cc1
T/C [5]: 100 % of control
T/C [6]: 96 % of control
T/C [7]: 98 % of control

CC(Cl)(C=O)c1ccccc1 (stereo not drawn)
T/C [8]: 100 % of control
T/C (dose: 120.0 mg/kg/injection, schedule: Q01DX005 (ip), vehicle: saline with Tween-80): 97 % of control

O=S(=O)(F)c1ccc(Cl)cc1C[P+](c1ccccc1)(c1ccccc1)c1ccccc1
T/C (dose: 25.0 mg/kg/injection, schedule: Q01DX001 (ip), vehicle: Klucel (hydroxypropylcellulose) (HPC)): 115 % of control and 120 % of control

C(=NCc1ccccc1)c1ccccc1-c1ccccc1C=NCc1ccccc1
T/C (dose: 12.5 mg/kg/injection, schedule: Q01DX009 (ip), vehicle: Klucel (hydroxypropylcellulose) (HPC)): 92 % of control
T/C [2]: 86 % of control
T/C [3]: 100 % of control
